Series [1] concerns the target T1, 11 β-HSD type 1 (Rattus norvegicus, UniProt P16232).
T1 construct: Both the kidneys and livers were homogenised on ice in PBS- sucrose buffer; tissue Harlan Olac, Bicester, Oxon, UK (rats); host or cells: rat liver homogenate supernatant (Wistar rat)
As to the kind of experiment: biochemical. It is filed as biochemical. The conditions noted are these: rat liver cytosol 25 μL, 90 min, 37° C., cortisone (E) to cortisol (F), vs control without inhibitor, means n=2; for inhibition at 10 µM: read-out: % […]→F ± SD, inhibitor 10 μM; for % INHIBITION E→F ± SD: inhibitor 10 μM.

For series [2], the target named is T2, 11 β-HSD type 2 (Rattus norvegicus, UniProt P50233).
T2 construct: Both the kidneys and livers were homogenised on ice in PBS- sucrose buffer; tissue Harlan Olac, Bicester, Oxon, UK (rats); host or cells: rat kidney homogenate supernatant (Wistar rat)
T2 sequence (P50233 1-400): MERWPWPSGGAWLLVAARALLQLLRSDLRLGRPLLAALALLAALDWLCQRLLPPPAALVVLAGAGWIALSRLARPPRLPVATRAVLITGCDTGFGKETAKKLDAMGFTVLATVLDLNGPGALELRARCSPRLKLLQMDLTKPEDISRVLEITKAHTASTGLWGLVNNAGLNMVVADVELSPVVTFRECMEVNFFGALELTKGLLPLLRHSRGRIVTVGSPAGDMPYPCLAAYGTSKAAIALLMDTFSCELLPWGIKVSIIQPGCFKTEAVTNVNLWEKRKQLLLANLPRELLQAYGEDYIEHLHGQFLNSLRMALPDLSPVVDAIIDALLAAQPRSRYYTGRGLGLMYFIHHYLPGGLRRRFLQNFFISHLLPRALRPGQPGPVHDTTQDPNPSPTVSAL
The series can be described thus: biochemical. As to conditions: for inhibition at 10 µM: read-out: % […]→E ± SD, inhibitor 10 μM; for inhibition at 10 µM / % INHIBITION F→E ± SD: rat kidney cytosol 150 μL, 60 min, 37° C., cortisol (F) to cortisone (E), vs control without inhibitor, means n=2. The protocol: Enzymes—Rat livers and rat kidneys were obtained from normal Wistar rats (Harlan Olac, Bicester, Oxon,UK). Both the kidneys and livers were homogenised on ice in PBS- sucrose buffer (1 g/10 ml) using an Ultra-Turrax. After the livers and kidneys were homogenised the homogenate was centrifuged for five minutes at 4000 rpm. The supernatant obtained was removed and stored in glass vials at −20° C. The amount of protein per μl of rat liver and kidney cytosol was determined using the Bradford method.
The same procedure was used for the 11 β-HSD type 2 assay, the conversion F to E, to determine the amount of rat kidney to be used and the incubation time.
In these assays the influence of different inhibitors on the 11 β-HSD activity both in reductive (type 1) and oxidative (type 2) directions were assessed. In the reductive direction E is the substrate and F the product and visa versa in the case of oxidation. The method described here is for the oxidative direction.
The substrate solution contained about 50,000 cpm/ml ^3H—F in PBS-sucrose and 0.5 pM F. 1 ml of the substrate solution was added to each tube, the inhibitors were also added, at a 10 μM concentration, to each tube except to the “control” and “blank” tubes. 150 μL was added to all tubes except to the blanks, this was done to correct for the amount of ^3H[…]. The tubes were incubated for 60 minutes in a mechanically shaken water bath at 37° C. […] After incubation 50 μL of recovery was added to correct for the losses made in the next steps, containing 5000 cpm/50 μL of ^14C-E and 50 μg/50 μL of unlabelled E (to visualise the spot on the TLC-plate). The aqueous mixture was then extracted with 4 ml of ether (2×30 sec cycle, vortex mix). After freezing the aqueous phase, the ether (upper) layer was decanted into smaller tubes and evaporated at 45° C. until completely dry. The residue was then re-dissolved in 6 drops of ether and transferred to a TLC-plate. The TLC-plate was developed in chloroform:methanol (9:1 v/v) solvent system, the TLC-plate ran for about 90 minutes until the solvent front had moved about 18 cm. The position of the product E was visualised under UV-light and cut out from the TLC-plate and put into scintillation vials. Radioactivity was eluted over 5 minutes with 0.5 ml methanol. 0.5 ml of PBS- sucrose and 10 ml of Ecoscint were then added and vortex mixed before counting in the scintillation counter. Before counting the samples, two total activity vials were prepared. These contained 0.5 ml of the substrate solution, 50 μL of the recovery, 0.5 ml of methanol and 10 ml of Ecoscint. These two total activity vials were needed to determine the amount of ^14C-E and ^3H—F added in the beginning to make the calculations.
To look at the percentage of inhibition four different concentrations, 1, 5, 10 and 20 μM, were used. The method for both the rat liver, type 1 the reductive, and rat kidney, type 2 the oxidative, stay the same throughout the entire experiment.
In this experiment the influence of different inhibitors on the conversion E to F and F to E was determined. The reason why inhibition in both directions was examined was to make a comparison between the inhibitors and which type of 11 β-HSD they inhibit more. Thirty-two compounds were screened for their ability to inhibit 11 β-HSD type 1 (E to F) and type 2 (F to E). […] The percent of inhibition was calculated as the percentage of decrease in radio labelled ^3H-E and ^3H—F of product formed, compared with the control activity (the tubes without an inhibitor in it). All the results calculated are means, n=2.

Setting [3] is: read-out: % INHIBITION E→F ± SD.
Setting [4] is: read-out: % INHIBITION F→E ± SD.

Values joined by “and” are separate entries in the source; they are usually repeats but may differ in a detail not shown here. Equal values may be shown once. Read-outs that look alike come from different tables or passages of the source.

Results on 25 compounds are retold here after US20040147494A1, “Use” (priority 2001, published 2004).

T1 sequence (P16232 whole entry): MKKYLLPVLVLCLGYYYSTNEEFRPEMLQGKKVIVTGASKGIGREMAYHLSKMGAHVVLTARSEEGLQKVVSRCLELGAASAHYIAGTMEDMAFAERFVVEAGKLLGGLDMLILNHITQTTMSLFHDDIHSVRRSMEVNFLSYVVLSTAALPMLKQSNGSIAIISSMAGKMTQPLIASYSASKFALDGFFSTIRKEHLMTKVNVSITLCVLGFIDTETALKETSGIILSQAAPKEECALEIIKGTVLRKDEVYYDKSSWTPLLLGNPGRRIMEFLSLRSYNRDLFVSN

`CC(C)OC(=O)[C@@]1(C)CC[C@]2(C)CC[C@]3(C)C(=CCC4[C@@]5(C)CC[C@H](O)C(C)(C)C5CC[C@]43C)[C@@H]2C1` (some centres unmarked) showed a melting point of 201 to 203 °C. Regarding `CC(C)OC(=O)[C@@]1(C)CC[C@]2(C)CC[C@]3(C)C(=CC(=O)C4[C@@]5(C)CC[C@H](O)C(C)(C)C5CC[C@]43C)[C@@H]2C1` (some centres unmarked), the melting point was 271 to 273 °C (dec.). Same read-out and setting: under `CC1(C)C2CC[C@]3(C)C(CC=C4[C@@H]5C[C@@](C)(C(=O)OC6CCCCC6)CC[C@]5(C)CC[C@]43C)[C@@]2(C)CC[C@@H]1O` (some centres unmarked) stands 163 to 166 °C; under `COC(=O)[C@@]1(C)CC[C@]2(C)CC[C@]3(C)C(=CCC4[C@@]5(C)CC[C@H](O)C(C)(C)C5CC[C@]43C)[C@@H]2C1` (some centres unmarked) [DGS01092 B], 135 to 137 °C; under `CC1(C)C2CC[C@]3(C)C(C(=O)C=C4[C@@H]5C[C@@](C)(C(=O)OCCc6ccccc6)CC[C@]5(C)CC[C@]43C)[C@@]2(C)CC[C@@H]1O` (some centres unmarked), 171 to 172 °C. Compound `CC(C)(C)OC(=O)[C@@]1(C)CC[C@]2(C)CC[C@]3(C)C(=CC(=O)C4[C@@]5(C)CC[C@@H](O)C(C)(C)C5CC[C@]43C)[C@@H]2C1` (some centres unmarked) displayed a melting point of 95 to 97 °C. For `CC1(C)C2CC[C@]3(C)C(C(=O)C=C4[C@@H]5C[C@@](C)(C(=O)OCCCc6ccccc6)CC[C@]5(C)CC[C@]43C)[C@@]2(C)CC[C@H]1O` (some centres unmarked), the melting point was in the range of 114 to 116 °C. Regarding `C[C@H](CCC(=O)O)[C@H]1CC[C@H]2[C@@H]3CC[C@@H]4C[C@H](O)CC[C@]4(C)[C@H]3C[C@H](O)[C@]12C` [Deoxycholic acid, reference compound], the inhibition at 10 µM is 27.6 ± 7.85% in series [1] (setting [3]) and -1.1 ± 8.27% in series [2] (setting [4]). Moreover, the “stimulation of 11 β-HSD type 2 (F to E)” value in series [2] (inhibitor 10 μM, rat kidney, printed as stimulation, not inhibition) stood at 1%. For `CC1(C)C(O)CC[C@@]2(C)C1CC[C@]1(C)C2CC=C2[C@@H]3C[C@@](C)(C(=O)OCc4ccccc4)CC[C@]3(C)CC[C@]21C` (some centres unmarked) [STX 296], the inhibition at 10 µM in series [1] (setting [3]) stood at 37.7 ± 8.85%; in series [2] (setting [4]), 33.8 ± 15.8%. In the case of `CC1(C)C2CC[C@]3(C)C(CC=C4[C@@H]5C[C@@](C)(C(=O)OCCc6ccccc6)CC[C@]5(C)CC[C@]43C)[C@@]2(C)CC[C@@H]1O` (some centres unmarked), the melting point is 153 to 155 °C. Still for that read-out and setting: under `COC(=O)[C@@]1(C)CC[C@]2(C)CC[C@]3(C)C(=CCC4[C@@]5(C)CC[C@H](O)C(C)(C)C5CC[C@]43C)[C@@H]2C1` (some centres unmarked) [DG 383 B] stands 291 to 293 °C. `CC(=O)[C@H]1CC[C@H]2[C@@H]3CC=C4C[C@@H](O)CC[C@]4(C)[C@H]3CC[C@]12C` [Pregnenolone, reference compound]: the inhibition at 10 µM in series [1] was found to be 49.8 ± 9.36%; in series [2] it was 42.1 ± 0.777%. The compound `CC(C)(C)OC(=O)[C@@]1(C)CC[C@]2(C)CC[C@]3(C)C(=CC(=O)C4[C@@]5(C)CC[C@H](O)C(C)(C)C5CC[C@]43C)[C@@H]2C1` (some centres unmarked) had a melting point of 171 to 174 °C. For the compound `CCOC(=O)[C@H](C)NC(=O)[C@@]1(C)CC[C@]2(C)CC[C@]3(C)C(=CC(=O)[C@@H]4[C@@]5(C)CC[C@H](O)C(C)(C)C5CC[C@]43C)[C@@H]2C1` (stereo partly drawn) [STX 369, 18β-Glycyrrhetinic Acid L-alanine Ethyl Ester Amide], the values for the inhibition at 10 µM in series [1] (setting [3]) and in series [2] (setting [4]) were 24.9 ± 2.51% and 35.4 ± 12.6%, respectively. On to `CC1(C)C2CC[C@]3(C)C([C@H](O)C=C4[C@@H]5C[C@@](C)(CO)CC[C@]5(C)CC[C@]43C)[C@@]2(C)CC[C@@H]1O` (some centres unmarked) [STX 351], for which the inhibition at 10 µM was determined as 70 ± 6.39% in series [1] (setting [3]) and 94.41 ± 0.63% in series [2] (setting [4]). In turn, `CC1(C)C2CC[C@]3(C)C(CC=C4[C@@H]5C[C@@](C)(C(=O)OCc6ccccc6)CC[C@]5(C)CC[C@]43C)[C@@]2(C)CC[C@H]1O` (some centres unmarked) returned a melting point of 151 to 152 °C.

Compound `CC1(C)C2CC[C@]3(C)C(CC=C4[C@@H]5C[C@@](C)(C(=O)OCC6CCCCC6)CC[C@]5(C)CC[C@]43C)[C@@]2(C)CC[C@@H]1O` (some centres unmarked) displayed a melting point of 133 to 134 °C. For `CC1(C)C2CC[C@]3(C)[C@H](C(=O)C=C4[C@@H]5C[C@@](C)(C(=O)NC6CC6)CC[C@]5(C)CC[C@]43C)[C@@]2(C)CC[C@@H]1O` (stereo partly drawn) [STX 370, 18β-Glycyrrhetinic Acid Cyclopropylamide], the values for the inhibition at 10 µM in series [1] (setting [3]) and in series [2] (setting [4]) were 89.6 ± 1.18% and 102.5 ± 0.22%, respectively.

Compound `COC(=O)[C@@]1(C)CC[C@]2(C)CC[C@]3(C)C(=CCC4[C@@]5(C)CCC(=O)C(C)(C)C5CC[C@]43C)[C@@H]2C1` (some centres unmarked) had a melting point of 234 to 236 °C. Regarding “Deoxycorticosterone [reference compound]”, the “% INHIBITION E→F ± SD” value in series [1] was found to be 70.2 ± 1.655%. The “% INHIBITION F→E ± SD” value in series [2] (inhibitor 10 μM) turned out to be 53.3 ± 1.273%. In the case of `CC1(C)C2CC[C@]3(C)C(CC=C4[C@@H]5C[C@@](C)(C(=O)O)CC[C@]5(C)CC[C@]43C)[C@@]2(C)CC[C@@H]1O` (stereo partly drawn) [STX122, 11-Deoxo-18β-glycerrhetinic acid], the inhibition at 10 µM in series [1] (setting [3]) was found to be 92.7 ± 1.23%; in series [2] (setting [4]) it was 109 ± 1.64%. For `CC(=O)C1CCC2C3CCC4=CC(=O)CC[C@]4(C)C3CC[C@]12C` (some centres unmarked) [Progesterone, reference compound], in that order: 73% and 68.5 ± 0.707%.

Consider `COC(=O)[C@@]1(C)CC[C@]2(C)CC[C@]3(C)C(=CC(=O)C4[C@@]5(C)CC[C@H](O)C(C)(C)C5CC[C@]43C)[C@@H]2C1` (stereo partly drawn) [STX195, 3β-Hydroxy-11-oxo-18β-glycyrrhetinic acid methyl ester], for which the figures for the inhibition at 10 µM in series [1] (setting [3]) and in series [2] (setting [4]) were 85.4 ± 2.29% and 105 ± 1.55%, respectively. Regarding `CCOC(=O)[C@@]1(C)CC[C@]2(C)CC[C@]3(C)C(=CC(=O)C4[C@@]5(C)CC[C@H](OCc6ccccc6)C(C)(C)C5CC[C@]43C)[C@@H]2C1` (some centres unmarked) [STX 297], the inhibition at 10 µM in series [1] (setting [3]) is 34.3 ± 8.26%; in series [2] (setting [4]), 58.7 ± 10.4%. Turning to `CC1(C)CC[C@]2(C(=O)O)CC[C@]3(C)C(=CC[C@@H]4[C@@]5(C)CCC(=O)C(C)(C)[C@@H]5CC[C@]43C)[C@@H]2C1` [BLE99006, 3-Oxo-oleanoic acid], the “% INHIBITION E→F ± SD” value in series [1] (10 µM) is 22% and 22.2 ± 0.354%. The “% INHIBITION F→E ± SD” value in series [2] (inhibitor 10 μM) stood at 45.6 ± 11.030%.

The melting point is the temperature, or range, at which the solid turns liquid.
